Measurements taken from patent US20110105523A1, “BIFEPRUNOX DERIVATIVES” (priority 2008, published 2011).

Columns and labels:
[1] = biological target: T1, human dopamine D2L receptor (Homo sapiens, UniProt P14416); assay: Adenylate cyclase activity (cAMP assay), inhibition of forskolin-stimulated cAMP accumulation in CHO cells; assay type: cell-based; details: for Conversion of cAMP, % of control (mean (±s.e.m.)): control = forskolin-stimulated cAMP accumulation; for EC50: inhibition of forskolin-induced cAMP accumulation, D2L agonism, read-out: pEC50 mean (±s.e.m.) (converted)
T1 construct: host or cells: CHO-K1
T1 sequence (P14416 whole entry): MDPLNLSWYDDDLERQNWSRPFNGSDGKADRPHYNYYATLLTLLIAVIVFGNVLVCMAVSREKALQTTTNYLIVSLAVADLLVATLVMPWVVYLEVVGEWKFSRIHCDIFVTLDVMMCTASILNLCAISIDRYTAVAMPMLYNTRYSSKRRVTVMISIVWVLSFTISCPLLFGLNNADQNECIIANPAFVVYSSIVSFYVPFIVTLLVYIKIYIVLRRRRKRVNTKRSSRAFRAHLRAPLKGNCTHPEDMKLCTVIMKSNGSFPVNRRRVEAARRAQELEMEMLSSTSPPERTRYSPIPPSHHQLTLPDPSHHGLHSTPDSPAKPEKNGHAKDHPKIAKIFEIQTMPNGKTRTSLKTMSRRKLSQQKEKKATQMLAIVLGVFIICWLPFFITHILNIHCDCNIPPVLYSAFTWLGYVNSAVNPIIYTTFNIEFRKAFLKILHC
Description: All compounds were dissolved in DMSO.
For incubation with test compounds (concentrations 10^−6-10^−10M), confluent cultures grown in 24 wells plates were used. Each condition or substance was routinely tested in quadruplicate. Cells were loaded with 1 μCi [^3H]-adenine in 0.5 ml medium/well. After 2 hours, cultures were washed with 0.5 ml PBS containing […] IBMX and forskolin with or without test compound. After aspiration the reaction was stopped with 1 ml trichloroacetic acid 5% (w/v). […] The extract was passed over Dowex (50W-4 200-400 mesh) and aluminiumoxide columns, eluted with water and 0.1M imidazole (pH=7.5). Eluates were mixed with 7 ml of Insta-gel and radioactivity was counted with a scintillation counter. The conversion of the cAMP fraction as compared to combined radioactivity in both cAMP and ATP fractions, and basal activity was subtracted to correct for spontaneous activity.
Dopamine D2L: reference compound: quinpirole; incubation time: 20 min.
Subsequently, the mean of four observations was taken as an estimate for drug-induced, receptor-mediated effects at specified messenger accumulation, expressed as percentage of control values (forskolin-stimulated cAMP accumulation).
By using the non-linear curve-fitting program XL-FIT mean values were plotted against drug concentration (in molar) and sigmoid curve (four parameter logistic curve) was constructed. The maximal forskolin-induced stimulated conversion was taken as maximum value and the maximal inhibition as minimum and these values were fixed during the fitting process.

[2] = biological target: T1, human dopamine D2L receptor; assay: Receptor binding, displacement of [3H]-spiperone on CHO cell membranes; details: [3H]-spiperone displacement, recombinant human D2L in CHO membranes; s.e.m. in brackets; read-out: pKi value mean ± s.e.m. (converted)
Description: The potency of 3′-hydroxy-bifeprunox, 4′-hydroxy-bifeprunox, 3′-sulfate-bifeprunox, 4′-sulfate-bifeprunox and, for comparison, bifeprunox as a ligand on the human dopamine D2L receptor was investigated using a receptor binding assay and determination of functional activity was investigated using a cAMP assay. All compounds were dissolved in DMSO.
The binding of the compounds of the invention to the human D2L receptor was performed using displacement of radioactive-labeled [^3H]-spiperone binding on membranes prepared from Chinese hamster ovary (CHO) cells expressing the recombinant human D2L receptor.
Human dopamine D2L receptors were cloned in CHO-K1 cells and obtained from Dr. D. Grandy, Vollum Institute, Portland, Oreg., USA.
The binding assay has been carried out using [^3H]-spiperone as ligand (see Eur. J. Pharmacol. 46:377-381, 1977). The labeled compound was incubated with or without the test compound, with a preparation from cloned CHO cells carrying the human dopamine D2L receptor. Separation of bound and free ligand was performed by filtration over glassfiber-filters. After two washings, the bound-fraction remained on the filter. Radioactivity trapped on the filter was measured by scintillation counting. Results are expressed as pKi (negative logarithm of the inhibition constant Ki which is calculated form the IC50).

Row | PS: mean % stimulation (agonism) at 1 μM [1] | Conversion of cAMP, % of control (mean (±s.e.m.)) ([1]; 10^−6M test compound) | Conversion of cAMP, % of control (mean (±s.e.m.)) ([1]; 10^−7M test compound) | Conversion of cAMP, % of control (mean (±s.e.m.)) ([1]; 10^−8M test compound) | Conversion of cAMP, % of control (mean (±s.e.m.)) ([1]; 10^−9M test compound) | Conversion of cAMP, % of control (mean (±s.e.m.)) ([1]; 10^−10M test compound) | EC50 [1] | Ki [2] | Structure (SMILES)
1 | 51% | 49 (6) % of control | 66 (12) % of control | 79 (6) % of control | 93 (9) % of control | 94 (5) % of control | 12.6 nM | 12.6 nM | O=c1[nH]c2cccc(N3CCN(Cc4cccc(-c5cccc(OS(=O)(=O)O)c5)c4)CC3)c2o1 [3′-sulfate, 7-[4-(3′-sulfooxy[1,1′-biphenyl]-3-ylmethyl)-1-piperazinyl]-2(3H)-benzoxazolone]
2 | 49% | 51 (16) % of control | 63 (14) % of control | 65 (13) % of control | 72 (13) % of control | 85 (9) % of control | 0.631 nM | 6.31 nM | O=c1[nH]c2cccc(N3CCN(Cc4cccc(-c5ccc(OS(=O)(=O)O)cc5)c4)CC3)c2o1 [4′-sulfate, 7-[4-(4′-sulfooxy[1,1′-biphenyl]-3-ylmethyl)-1-piperazinyl]-2(3H)-benzoxazolone]

Continued, compound first:

Row | Structure (SMILES) | PS: mean % stimulation (agonism) at 1 μM [1] | Conversion of cAMP, % of control (mean (±s.e.m.)) ([1]; 10^−6M test compound) | Conversion of cAMP, % of control (mean (±s.e.m.)) ([1]; 10^−7M test compound) | Conversion of cAMP, % of control (mean (±s.e.m.)) ([1]; 10^−8M test compound) | Conversion of cAMP, % of control (mean (±s.e.m.)) ([1]; 10^−9M test compound) | Conversion of cAMP, % of control (mean (±s.e.m.)) ([1]; 10^−10M test compound) | EC50 [1] | Ki [2]
3 | O=c1[nH]c2cccc(N3CCN(Cc4cccc(-c5cccc(O)c5)c4)CC3)c2o1 [3′-OH, 7-[4-(3′-hydroxy[1,1′-biphenyl]-3-ylmethyl)-1-piperazinyl]-2(3H)-benzoxazolone] | 49% | 51 (10) % of control | 56 (8) % of control | 63 (7) % of control | 70 (6) % of control | 84 (4) % of control | 0.794 nM | 12.6 nM
4 | O=c1[nH]c2cccc(N3CCN(Cc4cccc(-c5ccc(O)cc5)c4)CC3)c2o1 [4′-OH, 7-[4-(4′-hydroxy[1,1′-biphenyl]-3-ylmethyl)-1-piperazinyl]-2(3H)-benzoxazolone] | 55% | 45 (4) % of control | 50 (2) % of control | 58 (4) % of control | 59 (3) % of control | 90 (9) % of control | 0.2 nM | 12.6 nM
5 | O=c1[nH]c2cccc(N3CCN(Cc4cccc(-c5ccccc5)c4)CC3)c2o1 [Bifeprunox, 7-[4-([1,1′-biphenyl]-3-ylmethyl1)-1-piperazinyl]-2(3H)-benzoxazolone monomethanesulphonate] | 31% | 69 (10) % of control | 69 (11) % of control | 84 (12) % of control | 94 (13) % of control | 95 (15) % of control | 6.31 nM | 39.8 nM
